The subject of assay [1] is KCC2. Briefly: Western blot of KCC2 in total cell lysate of HEK KCC2 cells. The class given is cell-based. Particulars: 10 μM, 30 min of cell treatment, HEK KCC2 whole cell lysate. How it is done: Wild-type or KCC2-expressing Human Embryonic Kidney (HEK) 293 cells (provided by Prof. Eric Delpire Department of Anesthesiology, Vanderbilt University Medical Center, Nashville, Tenn.) were grown up to 80-90% confluence in DMEM/Ham's F-12 (1:1) (Life technologies, Carlsbad, Calif., USA) supplemented with 10% FBS (Life technologies), 50 units/mL penicillin, and 50 µg/mL streptomycin (Life technologies). KCC2-expressing clones were under puromycin selection (20 μg/ml, Life technologies).
Wild-type and KCC2-expressing HEK293 cells or NSC-34 were harvested and homogenised in lysis buffer (PBS containing 1% Igepal CA-630, 0.1% SDS, 10 mM sodium pyrophosphate, 10 mM NaF, 10 mM NaVO4, 10 mM iodoacetamide and cocktail protease inhibitors and centrifugated at 18000 g for 30 minutes at 4° C. Protein concentration in supernatants was determined using DC protein assay (Bio-rad). Same amounts of total proteins were separated in 6% or 7% SDS PAGE and transferred onto PVDF membrane. Once blocked in Tris Buffer Saline 0.05% Tween 5% non-fat dry milk, membranes were probes over night at 4° C. with KCC2 antibody (1/1000 dilution, Merck-Millipore, Billerica, Mass., USA), or anti-phospho-serine940 KCC2 (1/1000 dilution, PhosphoSolutions) or anti-Actin antibody (1/500 dilution, Sigma Aldrich). […] Signal intensity was measured with the image analysis software Image lab (Bio-Rad, Hercules, Calif., USA). […]

Assay [2] has as its system KCC2. In words: Western blot of KCC2 in total cell lysate of NSC-34 KCC2 cells. The class given is cell-based. The settings on record: 10 μM, 30 min of cell treatment, NSC-34 KCC2 whole cell lysate. Here is the method:
NSC-34 wild type and KCC2 were cultured in DMEM (Life technologies, Carlsbad, Calif., USA) supplemented with 10% FBS (Life technologies), 50 units/mL penicillin, and 50 µg/mL streptomycin (Life technologies).
Wild-type and KCC2-expressing HEK293 cells or NSC-34 were harvested and homogenised in lysis buffer (PBS containing 1% Igepal CA-630, 0.1% SDS, 10 mM sodium pyrophosphate, 10 mM NaF, 10 mM NaVO4, 10 mM iodoacetamide and cocktail protease inhibitors and centrifugated at 18000 g for 30 minutes at 4° C. Protein concentration in supernatants was determined using DC protein assay (Bio-rad). Same amounts of total proteins were separated in 6% or 7% SDS PAGE and transferred onto PVDF membrane. Once blocked in Tris Buffer Saline 0.05% Tween 5% non-fat dry milk, membranes were probes over night at 4° C. with KCC2 antibody (1/1000 dilution, Merck-Millipore, Billerica, Mass., USA), or anti-phospho-serine940 KCC2 (1/1000 dilution, PhosphoSolutions) or anti-Actin antibody (1/500 dilution, Sigma Aldrich). Anti-rabbit secondary antibody HRP conjugated was used for detection in chemiluminescent system (Thermo Scientific, Waltham, Mass., USA). Signal intensity was measured with the image analysis software Image lab (Bio-Rad, Hercules, Calif., USA). […]
Background: In western blotting, separated proteins are transferred to a membrane and probed.

Assay [3] has as its system reciprocal inhibition of lumbar MNs. In words: In vitro extracellular recordings and evaluation of reciprocal inhibition after neonatal spinal cord transection. Also noted: species or system rat. The text has this:
Rats were deeply anesthetized by hypothermia at birth. A dorsal midline skin incision was made over the thoracic vertebra and the overlying fascia and muscles were retracted to expose the dorsal surface of the vertebrae. After a partial laminectomy, the spinal cord was completely transected at the T8 thoracic level with scissors. The lesion cavity was then filled with sterile absorbable local hemostat Surgicoll (Medical Biomaterial Products; Neustadt-Glewe, Germany). The skin incision was closed with sutures (PDSII 6.0, Ethicon; Johnson and Johnson; Brussels, Belgium) and covered by Steri-Strips (3M Health Care; St. Paul, Minn.). The whole surgical procedure took less tan 10 min after anesthesia. Sham-operated rats were treated in the same way except […] the spinal cord transection. Following surgery, the neonates recovered 45 min in a warm environment maintaining the temperature at 35±1° C. Wounds were then cleaned and rats were kept in a warm environment for 40 min before returning to the nest.
Spinal cords isolated from neonatal rats were prepared as described in section 1.2 until “recording”.
Extracellular electrophysiological signals of lumbar VRs and DRs responses were recorded by contact stainless steel electrodes insulated from the bath with vaseline. […]

In assay [4] the test system is Hoffmann reflex (H-reflex). Briefly: Assessment of spasticity following spinal cord injury (H reflex). Format: in vivo, rat. The settings on record: 10 μg/kg i.v. Here is the method:
Thoracic spinal section in rats was used as a model of SCI. Adult female Wistar Rats (225/250 g Charles River) were anaesthetized intraperitoneally with 50 mg/kg ketamine (Imalgen®, Merial, Duluth, Ga., USA) and 0.25 mg/kg Medetomidine (Domitor®, Janssen Pharmaceutica, Beerse, Belgium). The antibiotic Amoxycyline (Duphamox LA®, Pfizer, 150 mg/kg) was injected subcutaneously before the surgery. The skin was cut longitudinally over T8-T10 vertebra and a local anesthetic (2% Procaine hydrochloride, Pharmy H, Saint-Germain-en-Laye, France) was injected intramuscularly before cuting the paravertebral muscles. A laminectomy was performed at vertebral segment T9. The spinal cord was transected with microscissors at the level of the T8 spinal segment. Finally, paravertebral muscles and skin were sutured and rats were treated with buprenorphine for analgesia (1 injection before awakening from anaesthesia and 4 more injections over the next 48 h period). […]
At day 29 post lesion, the H reflex in the rats under ketamine anesthesia (100 mg/kg, i.p.) were measured using a pair of stainless steel needle electrodes transcutaneously inserted into the vicinity of the tibial nerve stimulation. […]
The H reflex was measured three times at frequencies of 0.2 Hz 1 Hz, 2 Hz and 5 Hz to have their baseline values. […] The H reflex was measured each 20 minutes, five times at frequencies of 0.2 Hz 1 Hz, 2 Hz and 5 Hz

As for `CN1CCN(CCCN2c3ccccc3Sc3ccc(Cl)cc32)CC1` [compound 2, 2-chloro-10-[3-(4-methyl-1-piperazinyl)propyl]-10H-phenothiazine], the “phosphorylated KCC2 on serine 940” value in assay [1] and in assay [2] was “increased” throughout. The “total KCC2 protein level (monomers+oligomers)” value in assay [1] and in assay [2] was “increased” in each case. In assay [3] (200 μM (so in the source), n=6), the “strength of reciprocal inhibition relative to intact spinal cord” value is recorded as “inhibition comparable to an intact spinal cord”. Moreover, the “strength of reciprocal inhibition” value in assay [3] (5, 10 and 20 μM, 20 min after onset of application, P5-7 rats transected at birth) is “increased the strength of reciprocal inhibition in a dose-dependent manner”. For the same molecule, in assay [4] (80 min after injection, 1, 2 and 5 Hz, adult rats after SCI), the “decrease of the H reflex” value is about 30%. Besides, the “effect on spasticity after spinal cord injury” value in assay [4] (80 minutes, adult rats 4 weeks after SCI) is listed as “reduces spasticity”.

The record behind these values is patent US9814727B2, “Piperazine phenothiazine derivatives for treating spasticity” (UNIVERSITE D'AIX-MARSEILLE, priority 2014, dated 2017).
